Data on 6 molecules can be found in US8168832B2, “2,4,6-trialkylphenyl substituted cyclopentane-1,3-dione” (Bayer Cropscience AG, priority 2006, dated 2012).

For experiment [1], the system named is monocotyledonous and dicotyledonous weed and crop plants. The experiment can be described thus: Herbicidal post-emergence action (Example B), also comparison with known compounds. It is filed as in vivo. Details: key: % herbicidal effect: 0 = like control, 100 = plants died. The procedure: (§1) Seeds of monocotyledonous and dicotyledonous weed and crop plants are placed into sandy loam in wood fiber pots or in plastic pots, covered with soil and cultivated in a greenhouse, during the vegetation period also outdoors outside of the greenhouse, under good growth conditions. 2 to 3 weeks after sowing, the test plants are treated at the one- to three-leaf stage. The test compounds, formulated as wettable powders (WP) or liquid (EC), are, in various dosages at a water application rate of 300 l/ha (converted), with wetting agent (0.2 to 0.3%) added, sprayed onto the plants and the surface of the soil. 3 to 4 weeks after the treatment of the test plants, the effect of the preparations is rated visually in comparison to untreated controls (herbicidal effect in percent (%): 100% effect=the plants have died, 0% effect=like control plants).

In another experiment the test system is crop plants (cereal). As to the kind of experiment: Container trials with cereal in the greenhouse, mefenpyr 1 day prior to herbicide application (Example B, use of safeners). It counts as in vivo. Particulars: without safener. The procedure:
as §1, with “3 to 4 weeks after the treatment of the test plants, the effect of the preparations is rated visually in comparison to untreated controls (herbicidal effect in percent (%): 100% effect=the plants have died, 0% effect=like control plants).” left out
If it is additionally to be tested as to whether safeners can improve the plant compatibility of test substances in the case of crop plants, the following options are used for applying the safener: • seeds of the crop plants are, before sowing, dressed with the safener substance (the amount of safener stated in percent, based on the weight of the seed) • before the application of the test substances, the crop plants are sprayed with the safener at a certain application rate per hectare (usually 1 day before the application of the test substances) • the safener is applied together with the test substance as a tank mix (the amount of safener is stated in g/ha or as a ratio, based on the herbicide). • By comparing the effect of test substances on crop plants without or with safener treatment, it is possible to assess the effect of the safener substance.
Container Trials with Cereal in the Greenhouse
Mefenpyr 1 Day Prior to Herbicide Application

The mark [2] stands for this setting: 10 days after application, 50 g of a.i./ha.
Where [3] appears, read: 10 days after application, 100 g of a.i./ha.
[4] abbreviates: 10 days after application, 200 g of a.i./ha.
Setting [5] is: 28 days after application, 50 g of a.i./ha.
The mark [6] stands for this setting: 28 days after application, 100 g of a.i./ha.
[7] abbreviates: 28 days after application, 25 g of a.i./ha.
[8] abbreviates: 28 days after application, 12.5 g of a.i./ha.

With `CCc1cc(C)cc(CC)c1C1=C(OC(=O)C(C)(C)C)[C@H]2CCCC[C@H]2C1=O` (relative stereo) [I-b-24], the ALOMY in experiment [1] (100 g/ha) is listed as 80; in experiment [1] (200 g/ha), 90. Moreover, the AVEFA in experiment [1] (100 g/ha) is listed as 90; in experiment [1] (200 g/ha), 95. Also, the LOLMU in experiment [1] (100 g/ha) is 95; in experiment [1] (200 g/ha), 98. For the same molecule, the “Summer wheat observed (%)” value in the experiment on crop plants (cereal) (10 days after application, 25 g of a.i./ha) came out at 30%; in the experiment on crop plants (cereal) (setting [2]), 60%; in the experiment with crop plants (cereal) (setting [3]) it was 65%; in the experiment on crop plants (cereal) (setting [4]), 70%. For the same molecule, the “Summer barley observed (%)” value with crop plants (cereal) (setting [2]) was 20%; in the experiment with crop plants (cereal) (setting [3]), 50%; in the experiment with crop plants (cereal) (setting [4]) it was 60%.

In experiment [1] (100 g/ha), `CCc1cc(C)cc(CC)c1C1=C(OC(=O)C(C)(C)C)[C@H]2CCCC[C@@H]2C1=O` (relative stereo) [I-b-26] gave an ALOMY of 95, an AVEFA of 98 and an LOLMU of 70. In experiment [1] (200 g/ha), this molecule registered an ALOMY of 97, an AVEFA of 98 and an LOLMU of 100. Moreover, in the experiment on crop plants (cereal) (setting [5]), the “Summer barley observed (%)” value stood at 20% and the “Summer wheat observed (%)” value was determined as 15%. In the experiment on crop plants (cereal) (setting [6]), the “Summer barley observed (%)” value is recorded as 80% and the “Summer wheat observed (%)” value was 70%.

On to `CCc1cc(C)cc(CC)c1C1=C(O)C2CCCCC2C1=O` (centres unmarked) [I-a-9], for which, in experiment [1] (100 g/ha), the ALOMY came out at 98, the AVEFA is on record as 100 and the LOLMU worked out at 99. In experiment [1] (200 g/ha), this molecule yielded an ALOMY of 98, an AVEFA of 100 and an LOLMU of 99. Also, in the experiment with crop plants (cereal) (setting [7]), the “Summer barley observed (%)” value was found to be 20% and the “Summer wheat observed (%)” value is listed as 5%. Also, in the experiment with crop plants (cereal) (setting [5]), the “Summer barley observed (%)” value was found to be 50% and the “Summer wheat observed (%)” value turned out to be 60%. Besides, in the experiment with crop plants (cereal) (setting [6]), the “Summer wheat observed (%)” value is on record as 60%.

Turning to `CCOC(=O)OC1=C(c2c(CC)cc(C)cc2CC)C(=O)C2CCCCC12` (centres unmarked) [I-c-9], the “Summer barley observed (%)” value was found to be 10% in the experiment on crop plants (cereal) (setting [8]), 20% in the experiment with crop plants (cereal) (setting [7]), 40% in the experiment with crop plants (cereal) (setting [5]) and 90% with crop plants (cereal) (setting [6]). For the same molecule, the “Summer wheat observed (%)” value is recorded as 10% in the experiment with crop plants (cereal) (setting [8]), 30% in the experiment on crop plants (cereal) (setting [7]), 60% in the experiment on crop plants (cereal) (setting [5]) and 70% in the experiment with crop plants (cereal) (setting [6]).

Regarding `CCc1cc(C)cc(CC)c1C1=C(OC(=O)OC)C2CCCCC2C1=O` (centres unmarked) [I-c-10], the “Summer barley observed (%)” value in the experiment on crop plants (cereal) (setting [7]) came out at 25%; in the experiment with crop plants (cereal) (setting [5]), 50%; with crop plants (cereal) (setting [6]), 90%. In addition, the “Summer wheat observed (%)” value in the experiment on crop plants (cereal) (setting [7]) is 40%; in the experiment on crop plants (cereal) (setting [5]), 80%; in the experiment with crop plants (cereal) (setting [6]), 85%.

Turning to `CCc1cc(C)cc(CC)c1C1=C(OC(=O)OC)C2CCCCC2C1=O` (centres unmarked) [I-c-14], the “Summer wheat observed (%)” value with crop plants (cereal) (setting [8]) is recorded as 20%; in the experiment on crop plants (cereal) (setting [7]) it was 80%; in the experiment on crop plants (cereal) (setting [5]) it was 95%. Besides, the “Summer barley observed (%)” value in the experiment with crop plants (cereal) (setting [7]) was determined as 30%; in the experiment with crop plants (cereal) (setting [5]), 93%.
